Source: the supplement of paper PMC10307832

How the values were obtained:
Test in all cases: relative viability (nuclei count vs DMSO), 5 days (fraction); higher = more cells survive
[1] = compound: CC1=CC=C(C=C1)C(=O)CN2C3=C(CCCC3)SC2=N [Pifithrin_alpha] + COc1cc2c(Oc3ccc(NC(=O)C4(C(=O)Nc5ccc(F)cc5)CC4)cc3F)ccnc2cc1OCCCN1CCOCC1 [Foretinib] (partner 0.25 µM)
Outline: (§1)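 Relative viability is defined as nuclei in treated wells over nuclei in vehicle wells. Duplicate plates were run and medians reported. Lung cancer cell lines in 1536-well plates were dosed by pin tool one day after seeding, with one drug or with a fixed anchor-drug dose plus five library-drug doses (not always all listed) in √10 steps, and nuclei were counted after 5 days.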

Axitinib + Pictilisib = compound: CNC(=O)c1ccccc1Sc1ccc2c(/C=C/c3ccccn3)n[nH]c2c1 [Axitinib] + CS(=O)(=O)N1CCN(Cc2cc3nc(-c4cccc5[nH]ncc45)nc(N4CCOCC4)c3s2)CC1 [Pictilisib] (partner 1 µM)
Outline: as §1

Axitinib + Pemetrexed = compound: CNC(=O)c1ccccc1Sc1ccc2c(/C=C/c3ccccn3)n[nH]c2c1 [Axitinib] + Nc1nc2[nH]cc(CCc3ccc(C(=O)N[C@@H](CCC(=O)O)C(=O)O)cc3)c2c(=O)[nH]1 [Pemetrexed] (partner 0.2 µM)
Outline: as §1

Bemcentinib + Decitabine = compound: Nc1nc(Nc2ccc3c(c2)CC[C@@H](N2CCCC2)CC3)nn1-c1cc2c(nn1)-c1ccccc1CCC2 [Bemcentinib] + Nc1ncn([C@H]2C[C@H](O)[C@@H](CO)O2)c(=O)n1 [Decitabine] (partner 2 µM)
Outline: as §1

Cell Line: NCI-H650
- relative viability ([1]; first compound 3.162 µM): 0.996
- relative viability ([1]; first compound 10 µM): 1.05
- relative viability ([1]; first compound 31.62 µM): 0.793
- relative viability ([1]; first compound 100 µM): 0.902
- relative viability (Axitinib + Pictilisib; first compound 0.005 µM): 0.9
- relative viability (Axitinib + Pictilisib; first compound 0.01581 µM): 1.03
- relative viability (Axitinib + Pictilisib; first compound 0.05 µM): 0.764
- relative viability (Axitinib + Pictilisib; first compound 0.1581 µM): 0.945
- relative viability (Axitinib + Pictilisib; first compound 0.5 µM): 0.846
- relative viability (Axitinib + Pemetrexed; first compound 0.005 µM): 1.09
- relative viability (Axitinib + Pemetrexed; first compound 0.01581 µM): 0.808
- relative viability (Axitinib + Pemetrexed; first compound 0.05 µM): 1.04
- relative viability (Axitinib + Pemetrexed; first compound 0.1581 µM): 1.02
- relative viability (Axitinib + Pemetrexed; first compound 0.5 µM): 0.855
- relative viability (Bemcentinib + Decitabine; first compound 0.04 µM): 0.269
- relative viability (Bemcentinib + Decitabine; first compound 0.1265 µM): 0.301
- relative viability (Bemcentinib + Decitabine; first compound 0.4 µM): 0.282
- relative viability (Bemcentinib + Decitabine; first compound 1.265 µM): 0.294
- relative viability (Bemcentinib + Decitabine; first compound 4 µM): 0.347
